Reference: PMC12903969, “Discovery of a Novel and Potent Kir4.1 Inhibitor as a Safe and Rapid‐Onset Antidepressant Agent in Mice” (Advanced Science, 2025)
Values joined by “and” are separate entries in the source; they are usually repeats but may differ in a detail not shown here. Equal entries are not always repeated. Where two headings read alike, the source gives them in different places.

How the values were obtained:
hERG = target: T1, hERG (Homo sapiens, UniProt Q12809); experiment: hERG inhibition (QPatch, CHO-hERG cells); assay type: cell-based
T1 construct: expressed in transfected cells; host or cells: CHO-hERG
T1 sequence (Q12809 whole entry): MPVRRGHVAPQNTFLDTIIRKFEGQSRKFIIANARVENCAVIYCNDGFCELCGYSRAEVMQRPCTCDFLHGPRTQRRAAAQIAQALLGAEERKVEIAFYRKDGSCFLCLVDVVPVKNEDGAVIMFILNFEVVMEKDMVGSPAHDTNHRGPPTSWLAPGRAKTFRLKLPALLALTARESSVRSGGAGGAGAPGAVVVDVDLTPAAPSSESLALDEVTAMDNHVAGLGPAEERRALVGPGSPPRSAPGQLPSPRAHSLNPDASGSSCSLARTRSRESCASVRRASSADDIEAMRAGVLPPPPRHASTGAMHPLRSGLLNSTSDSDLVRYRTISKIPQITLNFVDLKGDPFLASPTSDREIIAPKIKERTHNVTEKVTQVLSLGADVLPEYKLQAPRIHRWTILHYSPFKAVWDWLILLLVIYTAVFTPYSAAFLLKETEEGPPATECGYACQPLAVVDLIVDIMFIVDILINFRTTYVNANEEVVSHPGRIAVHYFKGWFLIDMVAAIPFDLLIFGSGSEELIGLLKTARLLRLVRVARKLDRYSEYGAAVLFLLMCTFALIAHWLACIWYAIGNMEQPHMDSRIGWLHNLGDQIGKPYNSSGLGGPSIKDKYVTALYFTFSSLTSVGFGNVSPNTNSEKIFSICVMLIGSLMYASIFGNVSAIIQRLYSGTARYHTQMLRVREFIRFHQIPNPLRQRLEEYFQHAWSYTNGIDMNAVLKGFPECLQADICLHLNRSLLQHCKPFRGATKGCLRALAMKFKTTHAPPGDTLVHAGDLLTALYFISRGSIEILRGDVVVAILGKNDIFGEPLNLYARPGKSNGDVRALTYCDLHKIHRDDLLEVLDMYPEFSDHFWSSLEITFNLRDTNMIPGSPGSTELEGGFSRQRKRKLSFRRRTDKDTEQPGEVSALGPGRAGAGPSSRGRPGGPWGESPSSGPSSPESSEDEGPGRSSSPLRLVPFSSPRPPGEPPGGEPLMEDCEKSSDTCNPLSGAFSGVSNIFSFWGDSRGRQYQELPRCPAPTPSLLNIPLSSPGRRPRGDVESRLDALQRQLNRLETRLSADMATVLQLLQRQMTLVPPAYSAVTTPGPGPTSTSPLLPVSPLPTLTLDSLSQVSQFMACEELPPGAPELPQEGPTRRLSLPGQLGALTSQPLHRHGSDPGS
Procedure: CHO‐hERG cells were cultured to 60–80% confluency in 175‐cm^2 flasks, washed with PBS, and digested with detachin. After centrifugation, the cells were resuspended in medium at 2–5×10^6 mL^−1. Patch‐clamp recordings were performed using a QPatch with extracellular solution (140 NaCl, 5 KCl, 2 CaCl2, 1 MgCl2, 10 HEPES, 10 glucose, pH 7.4) and intracellular solution (145 KCl, 1 MgCl2, 5 EGTA, 10 HEPES, 5 Mg‐ATP, pH 7.3). Cells were clamped at −80 mV, stimulated with a 50 ms pre‐pulse to −50 mV, followed by 2 s depolarization to +40 mV, and 2 s repolarization to −50 mV, repeated every 5 s. After baseline recording, the test compound at various concentrations or 300 nM cisapride (positive control) was applied.

C57BL/6J mice = experiment: Seizure threshold measurement in 6-Hz seizure test; assay type: in vivo; parameters: key to seizure incidence, Multiple dose-6 Hz / seizure incidence, Single dose-6 Hz: % of mice showing seizures; conditions: for seizure incidence, Multiple dose-6 Hz / seizure incidence, Single dose-6 Hz: JX3212 10 mpk
Source text: Male C57BL/6J mice were subjected to corneal electroshock stimulation using a Grass S48 stimulator (Grass Technologies) with standardized parameters: frequency, 6 Hz; rectangular pulse width, 0.2 ms; and duration, 3 s. Seizure activity was operationally defined as the occurrence of any of the following behaviors: forelimb clonus, postictal immobility, facial myoclonus, staring behavior, orofacial automatization (chewing/unilateral pawing), or Straub tail posture. […] The seizure incidence was compared between the vehicle‐ and JX3212‐treated groups, with the CS50 threshold calculated as the minimal current intensity required to induce seizures in 50% of the subjects via probit analysis.

[1] = Brain penetration (plasma and brain concentration, LC-MS/MS); assay type: in vivo, mice; conditions: for Kp at 1 h / concentration at 1 h: male, C57BL/6J, mouse; for Kp at 1 h: brain and plasma, read-out: Brain/Plasma concentration ratio; for concentration at 1 h: 1 h post-dosing
Procedure: Male C57BL/6J mice were used for both blood–brain penetration and plasma/tissue distribution studies, with mice assigned to three groups: 10 mg kg^−1 JX3212 (n = 3), 20 mg kg^−1 JX3212 (n = 3) for blood–brain penetration, and 10 mg kg^−1 JX3212 for plasma/tissue distribution (all administered via intraperitoneal injection), where mice in the blood–brain penetration groups were fasted for 12 h prior to drug administration and 2 h post‐administration; 1 h after drug administration, 0.2 mL of blood was collected from the retro‐orbital/orbital venous plexus into 1.5 mL heparinized tubes, centrifuged at 11 000 rpm for 5 min to obtain plasma (stored at −80 °C for blood–brain penetration groups), while whole brains were excised for blood–brain penetration groups and whole brains plus kidneys (rinsed with physiological saline, blotted dry on filter paper, and accurately weighed) for the plasma/tissue distribution group; plasma samples (20 µL) were mixed with 20 µL internal standard solution and 300 µL acetonitrile for protein precipitation, vortexed for 15 min, centrifuged at 3700 rpm for 15 min at 4 °C, and the supernatant was collected, whereas brain and kidney samples were homogenized in acetonitrile at 10× tissue weight (8000 rpm, 3 × 30 s), sonicated for 5 min, and processed identically to plasma samples; the concentrations of JX3212 in plasma and tissues were quantified by liquid chromatography–tandem mass spectrometry (LC−MS/MS), with lower limits of quantification set to 50 ng mL^−1 for plasma and 50 ng g^−1 for brain tissue.

C57BL/6J mice after CSDS [2] = experiment: Chronic social defeat stress (CSDS) model, sucrose preference test; assay type: in vivo; conditions: single i.p. injection 10 mg kg−1
Procedure: (§1) The 10‐day CSDS paradigm was conducted as previously described.^[ [24] ^] CD‐1 aggressive mice were singly housed in defeat cages on one side of a perforated plexiglass partition 24 h before the defeat session. Experimental C57BL/6J mice were placed daily on the resident cage side of a novel CD‐1 aggressor that rapidly initiated a physical attack on the intruder. After 10‐min of social defeat, the intruder mice were housed on the opposite side of the partition within a shared home cage, experiencing further sensory contact for the subsequent 24 h. In contrast, control mice were maintained in their home cages and allowed to explore the empty defeat cages for 10 min each day.
Mice were individually housed with two identical bottles containing either 1% sucrose solution or tap water for 24 h. The bottles were then replaced to eliminate potential positional bias, followed by an additional 24‐h period with the same solutions. Subsequently, the mice were provided with tap water for 24 h. During the experimental phase, new bottles filled with either 1% sucrose solution or tap water were presented for 24 h, and the bottles were changed every 12 h. The bottles were weighed both before and after the 24‐h test to assess consumption of each solution.

C57BL/6J mice after CSDS [3] = experiment: CSDS model, social interaction test; assay type: in vivo
Procedure: as §1
C57BL/6J mice, comprising both control and experimental groups, were placed individually into the social open field with a plexiglass enclosure positioned along the side wall. Movement parameters, including the time spent in the interaction zone, corner zones, and locomotion, were monitored and analyzed over the two test sessions using the AnyMaze Tracking System. In the first session, the mice freely explored the arena for 2.5 min. Then, a new aggressive CD‐1 mouse was introduced into the plexiglass enclosure, and the experimental mice returned to the arena for the second 2.5‐min session. The social interaction ratio was determined as the ratio between the time the experimental mice spent in the interaction zone when the target CD‐1 was present and the time spent in the zone when it was absent.

[4] = mice, 10 mg/kg i.p., 1 h, 10 mg/kg
[5] = mice, 20 mg/kg i.p., 1 h, 20 mg/kg

## c1ccc2c(c1)oc1ccc(Nc3ccnc(NCCCN4CCOCC4)n3)cc12 [JX3212, N^4-(dibenzo[b,d]furan-2-yl)-N^2-(3-morpholinopropyl)pyrimidine-2,4-diamine]
hERG
  IC50: 1.02 µM
C57BL/6J mice; 10 mg kg−1, single or 14-day consecutive administration
  seizure susceptibility, 6-Hz seizure model (in words): did not alter seizure susceptibility
C57BL/6J mice; stimulus 18 mA
  seizure incidence, Multiple dose-6 Hz: 25
C57BL/6J mice; stimulus 20 mA
  seizure incidence, Multiple dose-6 Hz: 50
  seizure incidence, Single dose-6 Hz: 22.22
C57BL/6J mice; stimulus 22 mA
  seizure incidence, Multiple dose-6 Hz: 75
  seizure incidence, Single dose-6 Hz: 50
C57BL/6J mice; stimulus 24 mA
  seizure incidence, Single dose-6 Hz: 57.14
C57BL/6J mice; stimulus 26 mA
  seizure incidence, Multiple dose-6 Hz: 87.5
  seizure incidence, Single dose-6 Hz: 85.71
[1]; ip, 10 mg/kg, mice, 10 mg/kg i.p., 1 h
  Kp at 1 h: > 10
[1]; ip, 20 mg/kg, mice, 20 mg/kg i.p., 1 h
  Kp at 1 h: 12.9 ± 1
[1]; brain, intraperitoneal, 10 mg/kg, converted from 2533.3 ng/mL, read-out: brain concentration expressed as molar
  concentration at 1 h: ~6.3 µM
[1]; brain, ip, 10 mg/kg, mice, 10 mg/kg i.p., read-out: Brain Calculated Concentration
  concentration at 1 h: 2530 ± 745 ng/mL
[1]; brain, ip, 20 mg/kg, mice, 20 mg/kg i.p., read-out: Brain Calculated Concentration
  concentration at 1 h: 6690 ± 816 ng/mL
[1]; plasma, ip, 10 mg/kg, mice, 10 mg/kg i.p., mean ± SD, read-out: Plasma Calculated Concentration
  concentration at 1 h: 234 ± 14.4 ng/mL
[1]; plasma, ip, 20 mg/kg, mice, 20 mg/kg i.p., read-out: Plasma Calculated Concentration
  concentration at 1 h: 521 ± 63.3 ng/mL
[1]; [4]
  Brain/Plasma concentration ratio: 10.72
  logBB (blood–brain partitioning coefficient): 1.02 ± 0.10 and > 1 and 1.02
[1]; [5]
  Brain/Plasma concentration ratio: > 10
  logBB: 1.11 ± 0.03 and > 1
C57BL/6J mice after CSDS [2]
  CSDS: sucrose preference in SPT (in words): nonsignificant increase in the sucrose preference ratio
C57BL/6J mice after CSDS [3]; 10 mg/kg, session not given
  SIT--Time in interaction zone (s), single mice: 83.5 s and 59.3 s and 49.8 s and 72.2 s and 60.4 s and 74.9 s and 82.2 s and 43.8 s
C57BL/6J mice after CSDS [3]; single i.p. injection 10 mg kg−1
  CSDS: time spent in corners in SIT (in words): significant decrease in the time spent in corners
